In patent USRE30413E, “Bleomycinic acid and process for preparing thereof” (Zaidan Hojin Biseibutsu Kagaku Kenkyu Kai, priority 1971, dated 1980):
Like-named read-outs stand apart in the source and are kept apart here. Each block holds one compound with its values, some of them ahead of it.

Tests used:
[1] = test system: Mycobacterium 607; assay: cup test, antimicrobial activity to Mycobacterium 607; type: cell-based; details: standard bleomycin A2 = 1000 μ/mg
Source text: The endpoint of the hydrolysis reaction can be determined by a reaction in antimicrobial activity of the bleomycin substrate as measured by conventional cup tests using Mycobacterium 607, or by a change in the Rf value during thin layer chromatography.

[2] = test system: ICR-JCL male mice; details: for Total, degree of fibrosis ++: number of mice with grade ++, fourth Total column; for Total, degree of fibrosis -: number of mice with grade -, first Total column; for Total, degree of fibrosis ±: number of mice with grade ±, second Total column
Source text: The mice were bred for 5 weeks after the final administration and were then dissected. The right and left lungs were observed by microscopic examination.

[3] = test system: HeLa (S3 bb cell line); details: third day after addition
Source text: wherein the inhibitory effect= [formula] Co: relative number of cell on the first day t3 : relative number of cell on the third day after the addition of a bleomycin (3 mcg/ml in final)
C3 : relative number of cell in negative control on the third day

[4] = test system: cell culture of Yoshida
[5] = solubility of the hydrochloride in solvents; type: physicochemical

Compound: Cc1c(N)nc([C@H](CC(N)=O)NC[C@H](N)C(N)=O)nc1C(=O)N[C@H](C(=O)N[C@H](C)[C@@H](O)[C@H](C)C(=O)N[C@H](C(=O)NCCc1nc(-c2nc(C(=O)NCCC[S+](C)C)cs2)cs1)[C@@H](C)O)[C@@H](O[C@@H]1O[C@@H](CO)[C@@H](O)[C@H](O)[C@@H]1O[C@H]1O[C@H](CO)[C@@H](O)[C@H](OC(N)=O)[C@@H]1O)c1c[nH]cn1.[Br-] [bleomycin A2, 3-dimethylsulfopropylamino-bleomycin]
antimicrobial activity to Mycobacterium 607 [1]: 1000 μ/mg

Compound: Cc1c(N)nc([C@H](CC(N)=O)NC[C@H](N)C(N)=O)nc1C(=O)N[C@H](C(=O)N[C@H](C)[C@@H](O)[C@H](C)C(=O)N[C@H](C(=O)NCCc1nc(-c2nc(C(=O)NCCCCN=C(N)N)cs2)cs1)[C@@H](C)O)[C@@H](O[C@@H]1O[C@@H](CO)[C@@H](O)[C@H](O)[C@@H]1O[C@H]1O[C@H](CO)[C@@H](O)[C@H](OC(N)=O)[C@@H]1O)c1cnc[nH]1 [bleomycin B2, 4-guanidinobutylamino-bleomycin]
Total, degree of fibrosis ++ ([2]; lung L): 1 | Total, degree of fibrosis - ([2]; lung L): 5 | Total, degree of fibrosis ± ([2]; lung L): 1 | Total, degree of fibrosis ++ ([2]; lung R): 0 | Total, degree of fibrosis - ([2]; lung R): 4 | Total, degree of fibrosis ± ([2]; lung R): 3 | Inhibitory effect ([3]; 1.5 mcg/ml): 33 | Inhibitory effect ([3]; 3 mcg/ml): 64 | Inhibitory effect ([4]; 0.625 mcg/ml): 8.6 | Inhibitory effect ([4]; 1.25 mcg/ml): 34.0 | Inhibitory effect ([4]; 2.5 mcg/ml): 56.0

Compound: benzylamino-bleomycin
Inhibitory effect ([3]; 1.5 mcg/ml): 38 | Inhibitory effect ([3]; 3 mcg/ml): 73 | Inhibitory effect ([3]; 6 mcg/ml): 92

solubility ([5]; acetic acid): sparingly soluble | solubility ([5]; acetone): insoluble | solubility ([5]; dimethylsulfoxide): sparingly soluble | solubility ([5]; ethanol): insoluble | solubility ([5]; ether): insoluble | solubility ([5]; ethyl acetate): insoluble | solubility ([5]; methanol): sparingly soluble | solubility ([5]; water): soluble
Compound: hydrochloride of bleomycinic acid
